Results reported in patent US20210046094A1, “COMPOSITIONS AND METHODS FOR TREATING PAIN” (THE UNITED STATES GOVERNMENT AS REPRESENTED BY THE …, priority 2018, published 2021).
“Also recorded” adds a separate entry of the source.

Assays:
[1] = system: experimental autoimmune encephalomyelitis; conditions: cited from earlier work
IL-6 = assay: Quantitative immunohistochemistry of ipsilateral dorsal horn astrocytes after PNI: IL-6; assay type: in vivo, mouse
Description: (§1) Tissue analysis. Spinal cords are perfusion-fixed (4% PFA), cryoprotected and cryosectioned coronally (7 μm). The dorsal horns of L3-4, which innervates the plantar surface of the mouse hindpaw (Rigaud et al., Species and strain differences in rodent sciatic nerve anatomy: implications for studies of neuropathic pain, Pain, 136:188-201, PMID: 18316160 (2008)), are examined for markers of astrocyte activation (GFAP), Sur1-Trpm4 and IL-6, as well as the chemokines CCL2 and CXCL1. […]
(§2) Tissue analysis. […] The DRG and dorsal horns of L3-4, which innervate the plantar surface of the hindpaw (Rigaud et al., Species and strain differences in rodent sciatic nerve anatomy: implications for studies of neuropathic pain, Pain, 136:188-201, PMID 18316160 (2008)), are examined to quantify changes in, and the time course of those changes, for markers of astrocyte activation (GFAP), microglia/macrophage activation (Iba1, CD68), SUR1-TRPM4, IL-6, the chemokines, CCL2 and CXCL1 and their cognate receptors, CCR2 and CXCR2. Expression of these markers will be quantitatively compared in the different treatment groups using immunohistochemistry and in situ hybridization with cell-specific markers (GFAP, NeuN, Iba1, CD45). Quantitative comparisons will be validated using immunoblot and qPCR. […]

[2] = system: mice with peripheral nerve injury (PNI) by sciatic nerve cuffing; assay: Sciatic nerve cuff model of neuropathic pain: mechanical allodynia (von Frey filaments); assay type: in vivo, mouse
Description: WT mice underwent unilateral PNI by sciatic nerve cuffing, a widely accepted model of neuropathic pain in mice (Valcin et al. The sciatic nerve cuffing model of neuropathic pain in mice, J Vis Exp, PMID: 25078668 (2014)). Sciatic nerve cuffing reliably induces signs of chronic pain, including sustained mechanical and thermal allodynia. In this model, mechanical allodynia assessed using von Frey filaments develops within 1 week, and is sustained thereafter.
(§3) Sciatic nerve cuff model of neuropathic pain (Valcin et al. The sciatic nerve cuffing model of neuropathic pain in mice, J Vis Exp, PMID: 25078668 (2014)). Surgeries are performed under ketamine/xylazine anesthesia using aseptic techniques. The common branch of the right sciatic nerve is dissected and a 2 mm long section of pre-split PE-20 tubing is placed around it. Shams undergo the same surgery without cuffing.
Mechanical hypersensitivity. The threshold for ipsi- and contralateral hindpaw withdrawal is determined using von Frey filaments (Chaplan et al., Quantitative assessment of tactile allodynia in the rat paw, J Neurosci Methods, 53:55-63, PMID: 7990513(1994)).Mice are placed in clear Plexiglas boxes on an elevated mesh screen.
Calibrated von Frey filaments are applied to the plantar surface of each hindpaw (0.16-15 gm). The “up-down method” (Chaplan et al., Quantitative assessment of tactile allodynia in the rat paw, J Neurosci Methods, 53:55-63, PMID: 7990513(1994)) is used to determine the withdrawal threshold.
MECHANICAL ALLODYNIA. The threshold for ipsi- and contralateral hindpaw withdrawal is determined using von Frey filaments. von Frey filaments are applied to the plantar surface of each hindpaw (0.16-4 gm). The “up-down method (Chaplan et al., Quantitative assessment of tactile allodynia in the rat paw, J Neurosci Methods, 53:55-63, PMID 7990513 (1994))” is used to determine the withdrawal threshold, as in our previous studies (Masri et al., Zona incerta: a role in central pain, J Neurophysiol, 102:181-91, PMID 19403748 (2009); Whitt et al., Pathological activity in mediodorsal thalamus of rats with spinal cord injury pain, J Neurosci, 33:3915-26, PMID 23447602 (2013)). Alternatively, the withdrawal threshold is determined using the Hugo Basile Dynamic Plantar Aesthesiometer (Stoelting).
On day 0, all mice underwent unilateral sciatic nerve cuffing, in which a 2 mm long section of pre-split PE-20 tubing is placed around the right sciatic nerve under sterile conditions (Yalcin et al., The sciatic nerve cuffing model of neuropathic pain in mice, J Vis Exp, PMID 25078668 (2014)).

CXCL1 = assay: Quantitative immunohistochemistry of ipsilateral dorsal horn astrocytes after PNI: CXCL1; assay type: in vivo, mouse
Description: as §1, §2

[3] = Normal mechanical or thermal sensitivity thresholds (non-sensitized condition); assay type: in vivo; conditions: non-sensitized condition (not shown)
[4] = system: mice with peripheral nerve injury (PNI) by sciatic nerve cuffing; assay: Sciatic nerve cuff model: anxiety- and depression-like behaviors (open field, elevated plus maze, tail suspension); assay type: in vivo, mouse; conditions: WT mice; 10 μg/day intraperitoneal starting on day 21 after PNI
Procedure: ANXIETY-LIKE and DEPRESSION-LIKE BEHAVIORS are assessed only one time, they are administered during the 3 days preceding euthanasia, and the order in which tests are applied is from least stressful to more stressful (as listed below). We follow standard protocols, fully described in Yalcin et al (Yalcin et al., A time-dependent history of mood disorders in a murine model of neuropathic pain, Biol Psychiatry, 70:946-53, PMID 21890110 (2011)). Open field testing is employed for measuring locomotor activity and willingness to explore in mice. A computerized tracking system (ANY-Maze; Stoelting Co.) records animal movements and calculates speed, distance and other parameters. Time spent exploring the center of the open field is inversely related to anxiety. Elevated Plus Maze (Colbourn Instruments). Rodents naturally tend to explore novel environments, but open, well lit, elevated areas are perceived as aversive. This test is widely used in rodent models of anxiety. Tail suspension test (Harvard Apparatus), which measures immobility time, as well as energy and power in motion, is employed as a measure of depression-like behavior in rodents.

[5] = infusion of an appropriate dose of injectable glibenclamide, non-diabetics; below hypoglycemic threshold; cited from earlier work
[6] = administered via transdermal skin patch, preclinical; cited from earlier work
GFAP or SUR1 = assay: Intrathecal infusion in uninjured, naive mouse: GFAP and SUR1 expression; assay type: in vivo
Description: Spinal cord-specific inhibition or downregulation of SUR1 in central glia. […] The anesthetized mouse is mounted in a stereotaxic apparatus, hair is clipped from the dorsal thoracolumbar region, and the skin is prepped with Betadine solution. Using microscopic visualization, a midline incision is made, the paraspinal muscles are dissected off of the spinous processes and laminae. The spinous processes of L6-S1 are removed using a high speed surgical drill, and the dura between them is punctured using a 27-g needle. The infusion cannula of a Brain infusion kit (30 gauge cannula; Brain Infusion kit 3) is advanced stereotactically 1 mm into the thecal sac and is secured to the spine with cement.

[7] = system: mice with peripheral nerve injury (PNI) by sciatic nerve cuffing; assay: Sciatic nerve cuff model: thermal hyperalgesia (Hargreaves method); assay type: in vivo, mouse; conditions: adult male mice; intrathecal at lumbar 5, 5 ng/hour ×14 days from day +15; tested day +28
Procedure: THERMAL […] is assessed using the Hargreaves method, using a Hargreaves-type apparatus (Ugo Basile Plantar Test Instrument; Stoelting). An unrestrained animal is placed in a Perspex enclosure on the top of glass pane. An infrared generator placed below glass pane is aimed at the plantar surface of the hind paw and the time to withdrawal is recorded automatically via an optic sensor, avoiding experimental bias. Paw-withdrawal latency is calculated as the mean of 3-5 different measurements taken at 15 min intervals. […] On day 0, all mice underwent unilateral sciatic nerve cuffing, in which a 2 mm long section of pre-split PE-20 tubing is placed around the right sciatic nerve under sterile conditions (Yalcin et al., The sciatic nerve cuffing model of neuropathic pain in mice, J Vis Exp, PMID 25078668 (2014)).

[8] = system: mice with peripheral nerve injury (PNI) by sciatic nerve cuffing; assay: Sciatic nerve cuff model: cold/thermal allodynia (acetone); assay type: in vivo, mouse; conditions: WT mice
Procedure: as §3
(§4) Cold allodynia is assessed using acetone. A 10 μL volume of acetone is propelled via air burst from a 200 μL pipette onto the mid-plantar surface of the hind paw without touching the skin. Time spent elevating/licking/biting/shaking the stimulated paw, up to 15 sec, is measured with a stop watch. Each paw is stimulated 5×, allowing 5 min to elapse between successive paw stimulations.
as §4, with “THERMAL ALLODYNIA” for “Cold allodynia”, “acetone (Carey et al., Inflammatory and Neuropathic Nociception is Preserved in GPR55 Knockout Mice, Sci Rep, 7:944, PMID 28428628 (2017)).” for “acetone.”

CCL2 = assay: Quantitative immunohistochemistry of ipsilateral dorsal horn astrocytes after PNI: CCL2; assay type: in vivo, mouse
Description: as §1, §2

pCaMKII = assay: Astrocytic pCaMKII post-PNI (immunolabeling); assay type: in vivo, mouse; conditions: versus vehicle, n=3/group
[9] = Example 1 mice (FIG. 2D), compared to vehicle-treated controls
[10] = mice from FIG. 10 (10 μg/day IP from day 21), tissues at day 49 (FIG. 6D)
[11] = WT mice, 10 μg/day intraperitoneal starting on day 21 after PNI

COc1ccc(Cl)cc1C(=O)NCCc1ccc(S(=O)(=O)NC(=O)NC2CCCCC2)cc1 [glibenclamide]
entry into spinal cord tissues ([1]; CNS inflammatory condition (EAE)): readily enters spinal cord tissues | inflammation ([1]; EAE spinal cord): ameliorates inflammation | IL-6 in ipsilateral dorsal horn astrocytes (IL-6; [9]): significant reduction | IL-6 in ipsilateral dorsal horn astrocytes (IL-6; [10]): significant reductions | mechanical allodynia ([2]; WT mice, 10 μg IP loading dose plus 40 ng/hr subcutaneous via mini-osmotic pump ×2 weeks, shortly after PNI): significant blunting | duration of drug treatment required for complete reversal of mechanical allodynia [2, 11]: 2-3 weeks | mechanical allodynia [2, 11]: significantly ameliorated; also recorded: gradual but complete reversal | allodynia symptoms (mechanical allodynia, FIG. 3C) ([2]; WT mice, treatment beginning on day 18 after PNI, after allodynia was well established): significant reversal | mechanical allodynia ([2]; adult male mice, intrathecal at lumbar 5, 5 ng/hour ×14 days from day +15, tested day +28): completely reversed | CXCL1 in ipsilateral dorsal horn astrocytes (CXCL1; [9]): significant reduction | CXCL1 in ipsilateral dorsal horn astrocytes (CXCL1; [10]): significant reductions | normal mechanical sensitivity thresholds [3]: does not modify | normal thermal sensitivity thresholds [3]: does not modify | anxiety behaviors (open field and elevated plus maze) [4]: significantly ameliorated | depression-like behaviors (tail suspension) [4]: significantly ameliorated | serum levels [5]: < 45 ng/mL | plasma levels [6]: steady plasma levels of drug that can be maintained below the hypoglycemic threshold | upregulation of GFAP or SUR1 (GFAP or SUR1): does not upregulate GFAP or SUR1 | thermal hyperalgesia [7]: completely reversed | cold allodynia ([8]; 10 μg IP loading dose plus 40 ng/hr subcutaneous via mini-osmotic pump ×2 weeks, shortly after PNI): significant blunting | thermal allodynia ([8]; 10 μg/day intraperitoneal starting on day 21 after PNI): significantly ameliorated | CCL2 in ipsilateral dorsal horn astrocytes (CCL2; [9]): significant reduction | CCL2 in ipsilateral dorsal horn astrocytes (CCL2; [10]): significant reductions | astrocytic pCaMKII (pCaMKII): increases
